The assay concerns the target RORγt (Mus musculus, UniProt P51450, T352K). The experiment in a line: RORγt S2 cell Gal4-luciferase reporter assay. Particulars: for Emax: read-out: Efficacy (%).
Setting [1] is: IC50(μM), Drosophila S2 cells, Gal4-RORγt luciferase reporter, 20 hr.
[2] abbreviates: S2 cell RORg IC50 μM, S2 cell reporter assay, listed for comparison.

Sequence of RORγt (P51450 with tags, fused parts or gaps T352K): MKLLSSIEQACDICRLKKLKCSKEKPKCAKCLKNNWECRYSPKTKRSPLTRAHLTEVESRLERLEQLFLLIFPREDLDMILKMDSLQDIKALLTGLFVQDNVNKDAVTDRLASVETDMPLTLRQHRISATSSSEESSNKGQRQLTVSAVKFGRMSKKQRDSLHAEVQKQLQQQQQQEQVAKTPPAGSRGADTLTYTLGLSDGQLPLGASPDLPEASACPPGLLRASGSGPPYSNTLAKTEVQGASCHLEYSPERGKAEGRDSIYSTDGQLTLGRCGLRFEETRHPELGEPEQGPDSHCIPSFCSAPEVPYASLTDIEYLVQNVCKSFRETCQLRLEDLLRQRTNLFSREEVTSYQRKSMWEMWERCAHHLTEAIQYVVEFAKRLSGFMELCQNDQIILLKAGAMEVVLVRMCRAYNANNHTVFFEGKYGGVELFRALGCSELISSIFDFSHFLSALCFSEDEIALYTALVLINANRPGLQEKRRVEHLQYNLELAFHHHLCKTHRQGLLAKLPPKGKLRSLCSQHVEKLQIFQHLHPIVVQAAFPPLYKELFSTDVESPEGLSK
Source text: Methods: The Drosophila S2 cell line was originally purchased from Invitrogen and was maintained in Schneider's medium supplemented with 10% heat-inactivated bovine fetal calf serum and antibiotics (Invitrogen). […] The resulting chimeric gene was subcloned into the copper inducible pMT/V5-His A vector (available from Invitrogen).
In order to generate stable cell lines, cells were co-transfected with pMT-G4DBD-RORγt, pMT-G4DBD-RORα, pMT-G4DBD-DHR3, or pMT-G4DBDVP16 and pHygro plasmids (Invitrogen) and screened for resistant colonies in the presence of hygromycin (0.3 mg/mL).
Methods: 600 G4DBD-RORγ/γt-luc reporter (#25) or G4DBD-VP16-luc reporter cells were distributed into each well of 1,536-well white bottom plates in 4 μl S2 cell culture volume containing hygromicin (300 μg/ml) and puromycin (2 μg/ml). […] After one-hour incubation, 1 μl of culture medium solution containing copper sulfate (to final 0.7 mM) and 10 μM RORγ/γt antagonists were added to each well. After 20-hour incubation at ambient temperature, 1.5 μl firefly luciferase detection mix was added and the luciferase activities were measured in 10 min. ViewLux luminometers were used for measuring luciferase signal.
Since their cognate DNA binding sites were not well characterized, the DNA binding domains (DBD) of RORγ/γt, RORα (mouse homolog for POPγ), and DHR3 (Drosophila orthologue for ROR family proteins) were replaced with the heterologous yeast GAL4 DBD. The transcriptionally active domain of general transcriptional activator VP16 was also fused with GAL4 DBD. The GAL4 fusion constructs were placed under the control of a copper inducible promoter, and stable S2 cell lines with genomic integration of these four reporter constructs were generated. The copper inducible promoter ensures tight regulation of GAL4-fusion protein expression and it allows small molecules to get into the cells prior to protein induction, thus increasing their effects on GAL4 reporters. The stable reporter cell lines also encode the firefly luciferase reporter, whose expression is regulated by five copies of the GAL4 binding site enhancer (UAS), along with the pol III-driven Renilla luciferase reporter.
A cell-based reporter assay was used to detect RORγt-mediated activity. This assay, called RORγt□ employed Drosophila Schneider cells that were stably transfected with two vectors: a gene expressing a fusion of the Gal4 DNA binding domain and RORγt transactivation domain under the control of the metallothionine promoter and a Photinus luciferase reporter regulated by the Gal4 binding site enhancer, UAS. […] Cells (600/well) were dispensed into white solid 1536-well plates (Greiner) using a solenoid-based dispenser. Following transfer of 23 nL compound or DMSO vehicle by a pin tool, the plates were incubated 1 hr at ambient temperature, and 1 uL/well copper sulfate (700 uM final concentration) was added. The plates were centrifuged 15 s at 1000 RPM and incubated 20 hr at ambient temperature. After addition of 1.5 uL Photinus luciferase detection reagent, the plates were incubated 10 min at ambient temperature and then read by a ViewLux (Perkin Elmer) to detect luminescence. […] Efficacy is expressed as % of the maximal response of control inhibitor (Digoxin), set at 100%.

Take `CC1CC(C)CN(C(=O)CC(c2ccc3c(c2)OCO3)c2c(O)ccc3cccnc23)C1` (stereo not shown) [Compound 146]: the Emax is 94.1%. Moreover, the IC50 under setting [1] is 1 to 10 µM.
For the compound `COc1cc(O)c(C(CC(=O)N2CC(C)CC(C)C2)c2ccccc2Cl)c(OC)c1` (stereo not shown) [Compound 103], the Emax came out at 95.8%. For the same compound, the IC50 under setting [1] lay within 1 to 10 µM.
With `CC1CCCN(C(=O)CC(c2ccc3c(c2)OCO3)c2c(O)cccc2Cl)C1` (stereo not shown) [Compound 127], the Emax turned out to be 27.1%. The compound also registered an IC50 under setting [1] of 11 to 50 µM.
Turning to `COc1cc(OC)c(C(CC(=O)N2CCCC(C)C2)c2ccc3c(c2)OCO3)c(OCc2ccccc2)c1` (stereo not shown) [Compound 124], the Emax was 94.1%. In addition, the IC50 under setting [1] lay in the range of 1 to 10 µM. The IC50 under setting [2] lay in the range of 1 to 10 µM.
For `COc1cc(O)c(C(CC(=O)N2CCCC(C)C2)c2ccc3c(c2)OCO3)c2ccccc12` (stereo not shown) [Compound 129], the Emax is 76.9%. Moreover, the IC50 under setting [1] lay within 11 to 50 µM.
For `COc1cc(O)c(C(CC(=O)N2CCCC(C)C2)c2cccc3ccccc23)c(OC)c1` (stereo not shown) [Compound 66], the Emax is 52%. The same compound came in with an IC50 under setting [1] of 11 to 50 µM. The compound also had a half-inhibitory concentration (IC50) under setting [2] of 11 to 20 µM.
For “N-(3-(3-(3,5-Dimethylpiperidin-1-yl)-1-(2-hydroxy-4,6-dimethoxyphenyl)-3-oxopropyl)phenyl)methanesulfonamide [Compound 82]”, the “Efficacy (%)” value (% of the maximal response of control inhibitor (Digoxin), set at 100%) is −95.39%. For the same compound, the IC50 (Drosophila S2 cells, Gal4-RORγt luciferase reporter, 20 hr) was less than 1 µM.
`COc1cc(O)c(C(CC(=O)N2CCCC(C)C2)c2ccc3c(c2)OCO3)c(OC)c1` (stereo not shown) [Compound 3]: the Emax was 98.8%. This compound came in with an IC50 under setting [1] of 1 to 10 µM.
Turning to `CC1CC(C)CN(C(=O)CC(c2ccc(-n3cncn3)cc2)c2ccc3c(c2)OCO3)C1` (stereo not shown) [Compound 141, 3-(4-(1H-1,2,4-Triazol-1-yl)phenyl)-3-(benzo[d][1,3]dioxol-5-yl)-1-(3,5-dimethylpiperidin-1-yl)propan-1-one], the Emax worked out at 106%. Further, under setting [1], the IC50 fell in the range of 11 to 50 µM.
In the case of `Cc1cccc(C(CC(=O)NCCc2ccccc2)c2ccccc2)c1O` (stereo not shown) [Compound 48], the IC50 under setting [1] was greater than 50 µM.
On the same count and under the same terms, to `COc1ccc(C(CC(=O)Nc2ccc(F)cc2)c2ccccc2)cc1` (stereo not shown) [Compound 46] belongs greater than 50 µM.
In the case of `COc1cc(O)c(C(CC(=O)N2CCCC(C)C2)c2ccc(-c3ccccc3)cc2)c(OC)c1` (stereo not shown) [Compound 67], the Emax is 72%. This compound also came in with an IC50 under setting [1] of 11 to 50 µM. Moreover, the half-inhibitory concentration (IC50) under setting [2] fell in the range of 11 to 20 µM.
Turning to `CC1CCCN(C(=O)CC(c2ccc3c(c2)OCO3)c2ccc(F)cc2O)C1` (stereo not shown) [Compound 132], the Emax worked out at 30.4%. Under setting [1], the IC50 lay within 1 to 10 µM.
`COc1cc(O)c(C(CC(=O)N2CCc3ccccc32)c2ccc3c(c2)OCO3)c(OC)c1` (stereo not shown) [Compound 32] displayed an IC50 under setting [1] greater than 50 µM.
Still for that read-out and setting: then `COc1ccccc1C(CC(=O)Nc1ccc(F)cc1)c1ccccc1` (stereo not shown) [Compound 50], with greater than 50 µM.
Take `COc1ccccc1C(CC(=O)N1C[C@H](C)C[C@H](C)C1)c1ccccc1` (stereo partly shown) [Compound 55]: the IC50 runs as follows: under setting [1], greater than 50 µM; under setting [2], greater than 20 µM.
On to `CC1CCCN(C(=O)CC(c2ccc3c(c2)OCO3)c2ccc3ccccc3c2O)C1` (stereo not shown) [Compound 68], for which, under setting [1], the IC50 was greater than 50 µM.
Regarding `COc1cc(O)c(C(CC(=O)N2CCCC(C)C2)c2ccc3ccccc3c2)c(OC)c1` (stereo not shown) [Compound 65], the Emax was 92.4%. In addition, the IC50 under setting [1] lay in the range of 1 to 10 µM. The same compound returned an IC50 under setting [2] of 1 to 10 µM.
On to `CCOc1ccc(C(CC(=O)N2CCCC(C)C2)c2c(O)cc(OC)cc2OC)cc1` (stereo not shown) [Compound 62], for which the Emax stood at 100%. Also, the IC50 under setting [1] lay in the range of 1 to 10 µM.
On to `COc1cc(O)c(C(CC(=O)N2CC(C)CC(C)C2)c2ccc(C(=O)O)cc2)c(OC)c1` (stereo not shown) [Compound 99], for which the Emax came out at 92.6%. Moreover, the IC50 under setting [1] is 1 to 10 µM.
Taken in the same sequence, the figures for `COc1ccc(C)c(O)c1C(CC(=O)N1CCCC(C)C1)c1ccc2c(c1)OCO2` (stereo not shown) [Compound 130] were 77.5% and 11 to 50 µM.
In the case of `COc1cc(O)c(C(CC(=O)N2CC(C)CC(C)C2)c2ccc(Cl)c(Cl)c2)c(OC)c1` (stereo not shown) [Compound 88, 3-(3,4-Dichlorophenyl)-1-(3,5-dimethylpiperidin-1-yl)-3-(2-hydroxy-4,6-dimethoxyphenyl)propan-1-one], the Emax is 97.2%. For the same compound, under setting [1], the IC50 lay in the range of 1 to 10 µM.
Taken in the same sequence, the figures for `COc1ccccc1C(CC(=O)N1CCCCC1)c1ccccc1` (stereo not shown) [Compound 56] were 30.5% and 1 to 10 µM.
For `COc1cc(O)c(C(CC(=O)N2CCCCC2)c2ccc3c(c2)OCO3)c(OC)c1` (stereo not shown) [Compound 5] the same measures were 90.4% and 11 to 50 µM.
On to `Cc1cccc(C(CC(=O)NCc2ccco2)c2ccccc2)c1O` (stereo not shown) [Compound 49], for which the IC50 under setting [1] is greater than 50 µM.
In the case of `Cc1ccc(C)c(C(CC(=O)N2CCCC(C)C2)c2ccc3c(c2)OCO3)c1O` (stereo not shown) [Compound 113], the Emax stood at 81.5%. In addition, under setting [1], the IC50 is 11 to 50 µM.
Turning to `COc1cc(O)c(C(CC(=O)N2CCCC(C)C2)c2ccc(C(C)C)cc2)c(OC)c1` (stereo not shown) [Compound 64], the Emax came out at 99.3%. The IC50 under setting [1] lay within 1 to 10 µM. The compound further displayed an IC50 under setting [2] of 1 to 10 µM.
`CCN(CC)C(=O)CC(c1ccc2c(c1)OCO2)c1c(O)cc(OC)cc1OC` (stereo not shown) [Compound 39]: the Emax turned out to be 64.9%. The same compound had an IC50 under setting [1] of 11 to 50 µM.
For `CC1CCCN(C(=O)CC(c2ccc3c(c2)OCO3)c2ccc(I)cc2O)C1` (stereo not shown) [Compound 131] the same measures were 33.2% and 11 to 50 µM.
`COc1cc(O)c(C(CC(=O)N2CCC(Cc3ccccc3)CC2)c2ccc(C)cc2)c(OC)c1` (stereo not shown) [Compound 44] showed an IC50 under setting [1] greater than 50 µM.
Consider `COc1cc(O)c(C(CC(=O)N2CC(C)CC(C)C2)c2cc(Cl)cc(Cl)c2)c(OC)c1` (stereo not shown) [Compound 97], for which the Emax amounted to 61.5%. This compound had an IC50 under setting [1] of 11 to 50 µM.
The compound `COc1cc(O)c(CCC(=O)N2CCCC(C)C2)c(OC)c1` (stereo not shown) [Compound 71] had an IC50 under setting [1] greater than 50 µM.
As to `COc1cc(O)c(C(CC(=O)N2CC(C)CC(C)C2)c2ccc3c(c2)OCCCO3)c(OC)c1` (stereo not shown) [Compound 80], the Emax stood at 94%. Further, the IC50 under setting [1] is less than 1 µM.
Consider `COc1cc(O)c(C(CC(=O)N2CCC(c3ccccc3)CC2)c2ccc(OC)c(OC)c2)c(OC)c1` (stereo not shown) [Compound 45], for which the IC50 under setting [1] was greater than 50 µM.
With `CCC(=O)C1CCCN(C(=O)CC(c2ccc3c(c2)OCO3)c2c(O)cc(OC)cc2OC)C1` (stereo not shown) [Compound 13], the IC50 under setting [1] was greater than 50 µM.
In the case of `COc1cc(O)c(C(CC(=O)N2CC(C)CC(C)C2)c2cccc(OC(C)C)c2)c(OC)c1` (stereo not shown) [Compound 94, 1-(3,5-Dimethylpiperidin-1-yl)-3-(2-hydroxy-4,6-dimethoxyphenyl)-3-(3-isopropoxyphenyl)propan-1-one], the Emax was 90.5%. The half-maximal inhibitory concentration (IC50) under setting [1] is 1 to 10 µM.
Consider `COc1cc(O)c(C(CC(=O)N2CC(C)CC(C)C2)c2ccc(C(C)=O)cc2)c(OC)c1` (stereo not shown) [Compound 100, 3-(4-Acetylphenyl)-1-(3,5-dimethylpiperidin-1-yl)-3-(2-hydroxy-4,6-dimethoxyphenyl)propan-1-one], for which, under setting [1], the half-maximal inhibitory concentration (IC50) is less than 1 µM.
Consider `Cc1cccc(O)c1C(CC(=O)N1CCCC(C)C1)c1ccc2c(c1)OCO2` (stereo not shown) [Compound 126], for which the Emax was 43.5%. The same compound yielded an IC50 under setting [1] of 11 to 50 µM.
For `COc1cc(O)c(C(CC(=O)N2CC(C)CC(C)C2)c2ccc(OC(F)(F)F)cc2)c(OC)c1` (stereo not shown) [Compound 96, 1-(3,5-Dimethylpiperidin-1-yl)-3-(2-hydroxy-4,6-dimethoxyphenyl)-3-(4-(trifluoromethoxy)phenyl)propan-1-one] the same measures were 94.8% and 1 to 10 µM.
For `Cc1cc(C)c(O)c(C(CC(=O)N2CCCC(C)C2)c2ccc3c(c2)OCO3)c1` (stereo not shown) [Compound 116] the same measures were 48.2% and 11 to 50 µM.
Take `COc1cc(OC)c(C(c2ccccc2)C(C)(C)C(=O)N2CC(C)OC(C)C2)c(OC)c1` (stereo not shown) [Compound 150]: the Emax turned out to be 91.6%. Under setting [1], this compound had a half-inhibitory concentration (IC50) of 1 to 10 µM.
Regarding `COc1cc(O)c(C(CC(=O)N2CC(C)CC(C)C2)c2cccc(C(=O)O)c2)c(OC)c1` (stereo not shown) [Compound 101, 3-(3-(3,5-Dimethylpiperidin-1-yl)-1-(2-hydroxy-4,6-dimethoxyphenyl)-3-oxopropyl)benzoic acid], the IC50 under setting [1] was 1 to 10 µM.
`COc1cc(O)c(C(CC(=O)NC2CCC(C)CC2)c2ccc3c(c2)OCO3)c(OC)c1` (stereo not shown) [Compound 23]: the Emax worked out at 76.8%. The compound further displayed an IC50 under setting [1] of 11 to 50 µM.
Regarding `COc1cc(O)c(C(CC(=O)NCc2ccccc2)c2ccc3c(c2)OCO3)c(OC)c1` (stereo not shown) [Compound 21], the IC50 under setting [1] is greater than 50 µM.
In the case of `COc1cc(O)c(C(CC(=O)N2CC(C)CC(C)C2)c2cccc(Br)c2)c(OC)c1` (stereo not shown) [Compound 85, 3-(3-Bromophenyl)-1-(3,5-dimethylpiperidin-1-yl)-3-(2-hydroxy-4,6-dimethoxyphenyl)propan-1-one], the Emax amounted to 103%. This compound also came in with an IC50 under setting [1] of 1 to 10 µM.
In the case of `COc1ccc2ccccc2c1C(c1ccc(F)cc1)C(C)(C)C(=O)N1CC(C)CC(C)C1` (stereo not shown) [Compound 157], the Emax was found to be 94.4%. This compound gave a concentration for half-maximal inhibition (IC50) under setting [1] of 1 to 10 µM.
For `CCCC1CCN(C(=O)CC(c2ccc3c(c2)OCO3)c2c(O)cc(OC)cc2OC)C1` (stereo not shown) [Compound 9] the same measures were 63.5% and 11 to 50 µM.
Under setting [1], `Cc1ccc(O)c(C(CC(=O)NC2CCCCC2)c2ccccc2)c1` (stereo not shown) [Compound 47] returned an IC50 greater than 50 µM.
Same read-out and setting: to `COc1ccccc1C(CC(=O)N1CCCC(C)C1)c1ccccc1` (stereo not shown) [Compound 52] belongs greater than 50 µM.
As to `COc1c(C(CC(=O)N2CC(C)CC(C)C2)c2ccc3c(c2)OCO3)c(O)cc2occc12` (stereo not shown) [Compound 139], the Emax was found to be 94.5%. Under setting [1], this compound gave an IC50 of less than 1 µM.
On to `COc1cc(O)c(C(CC(=O)N2CC(C)CC(C)C2)c2cccc(OCc3ccccc3)c2)c(OC)c1` (stereo not shown) [Compound 91], for which the Emax was 92.6%. The same compound returned an IC50 under setting [1] of 1 to 10 µM.
Taken in the same sequence, the figures for `CCc1ccc(O)c(C(CC(=O)N2CCCC(C)C2)c2ccc3c(c2)OCO3)c1` (stereo not shown) [Compound 112] were 106% and 11 to 50 µM.

These data come from US10561666B2, “Amido compounds as RORγt modulators and uses thereof” (New York University, priority 2010, dated 2020).
